The results in this text go back to patent US20230391727A1, “ANALOGUES OF PENTAMIDINE AND METHODS FOR TREATING INFECTIONS” (Auransa Inc., priority 2020, published 2023).

In brackets after ≈: the same amount, converted by molar mass.

What all share (type): cell-based
The test system of assay [1] is E. cloacae (ATCC 13047). Kind of assay: Checkerboard/MIC assay with rifampicin. Conditions: Enterobacter cloacae ATCC-13047. An excerpt: (§1) The 17 test strains/isolates were: (1) Serratia marcescens (ATCC 13880); (2) Salmonella typhimurium (ATCC 13311); (3) Salmonella choleraesuis (ATCC 10708); (4) Acinetobacter baumannii (ATCC BAA-1605); (5) A. baumannii (ATCC 17978); (6) A. baumannii (FDA-CDC AR-BANK#0088); (7) Citrobacter freundii (ATCC 8090); (8) Pseudomonas aeruginosa (BCCM 27647); (9) P. aeruginosa (BCCM 27648); (10) Escherichia coli (ATCC 25922); (11) E. coli (ATCC 10536); (12) Stenotrophomonas maltophilia (ATCC 13637); (13) Enterobacter cloacae (ATCC BAA-1143); (14) E. cloacae (ATCC 13047); (15) E. aerogenes (ATCC 13048); (16) Klebsiella pneumoniae (NCTC 13438); and (17) Klebsiella pneumoniae (FDA-CDC AR-BANK#0160). These bacterial strains were obtained from the American Type Culture Collection (ATCC, Rockville, MD, USA); Belgian Coordinated Collections of Microorganisms; The Culture Collections of Public Health England, UK; and FDA-CDC anticimrobial Resistance Isolate Bank, USA, and cryopreserved as single-use frozen working stock cultures which were stored at −80° C.
(§2) The 17 test strains were grown on nutrient agar or tryptic soy agar (TSA) medium as below. Colonies were suspended in phosphate buffered saline (PBS) pH 7.4. The absorbance of the bacterial suspension was measured with a spectrophotometer at OD620nm, and then the suspension was adjusted to 1-2×10^8 CFU/mL in PBS. The adjusted suspension was further diluted 1:500 in cation-adjusted Mueller-Hinton Broth. Each well contained approximately 5×10^5 CFU/mL. […] The testing inoculum was prepared within minutes before adding to wells of the test plate.
(§3) Compound 3 was tested in 8 points by two-fold serial titrations from 100 to 0.78 μg/mL. […] Assay plates were incubated and MIC endpoints were read as complete inhibition of visual growth. The checkerboard combination analysis was performed following the MIC testing protocol to identify potential synergistic, indifferent or antagonistic interactions. The analysis also included each test substance alone at the same concentration ranges.
(§4) FIC (Fraction Inhibitory Concentration) and FIC Index (FICI) values for each test condition and the average of FICI values of all pairwise combinations were calculated to determine if synergy or antagonism existed between the two substances. The FIC index was determined by calculating the sum of the ratios of MICs (minimum inhibitory concentrations) for both substances. […] Synergy is defined as the FICI (Σ)≤0.5; additivity or indifference are defined as the FICI (Σ)>0.5 to ≤4; antagonism is defined as the FICI (Σ)>4. The two fold of highest test article concentration was used for FIC value calculations in the circumstances where MIC values were greater than the highest test article concentration.

Assay [2] relates to Enterobacter cloacae (ATCC BAA-1143). Kind of assay: Checkerboard/MIC assay with rifampicin. As to conditions: Enterobacter cloacae BAA-1143.
Source text: as §1, §2, §3, §4

Assay [3] relates to Klebsiella pneumoniae (FDA-CDC AR-BANK#0160). Kind of assay: Checkerboard/MIC assay with rifampicin. Conditions: Klebsiella pneumoniae AR-BANK#0160.
Source text: as §1, §2, §3, §4

Assay [4] concerns Salmonella choleraesuis (ATCC 10708). Put plainly: Checkerboard/MIC assay with rifampicin. As to conditions: Salmonella choleraesuis ATCC 10708.
Source text: as §1, §2, §3, §4

Assay [5] concerns S. aureus ATCC 27660. Put plainly: MIC assay against gram positive S. aureus. Conditions: Staphylococcus aureus, ATCC27660. On the procedure:
(§5) Then the compound stocks were serially 2-fold diluted in a v-bottom 96-well plate to make 100-fold working solutions. One day before the test, −80° C. glycerol stock of S. aureus strains were streaked on cation-adjusted Mueller-Hinton agar (CAMHA) plates. On the day of test, fresh bacterial colonies were suspended into sterile saline to an OD600 nm of ˜0.1 (equivalent to 0.5 McFarland). The bacterial suspension was firstly 20-fold followed by 50-fold diluted in cation-adjusted Mueller-Hinton broth (CAMHB) plates to 1×10^6 CFU/PO. 198 ul of the inoculum was added into the round-bottom 96-well plates prefilled with 2 ul of 100-fold compound working solutions. After incubating at 35 +/−2° C. in ambient atmosphere for 18-24 h, MIC was recorded as the lowest concentration under which no visible bacterial growth was observed.

The subject of assay [6] is S. aureus ATCC 43300. Put plainly: MIC assay against gram positive S. aureus. Conditions: Staphylococcus aureus, ATCC43300. On the procedure: as §5
For assay [7], the system named is Staphylococcus aureus ATCC 19636. Kind of assay: MIC assay against gram positive and antibiotic-resistant S. aureus. As to conditions: ATCC19636; Staphylococcus aureus ATCC 19636; read-out: MIC. The procedure:
(§6) The MICs of vancomycin and linezolid were determined as quality controls and the MIC values of each strain met the acceptance criteria based on PDS historical reference data.
(§7) The direct colony suspension method was used to prepare inoculated broth. Isolated colonies were taken from an 18-24 h culture plate. Optical density measurements (OD620 nm) were used to estimate the bacterial density. The test article, compound 3, and reference control stock solutions were prepared in 100% DMSO as 50× stock solutions. The 50× stock solutions were diluted by 2-fold serial titrations with 100% DMSO for a total of 11 concentrations. A 4 μL aliquot of each dilution was added to 196 μL of cation-adjusted Mueller Hinton Broth II medium seeded with the organism in wells of a 96 well plate. The final vehicle concentration was two percent (2%) in all assay wells. The final bacterial count was 2 to 8×10^5 CFU/mL. The final compound 3 concentration range was 16 to 0.016 μg/mL. Each test substance dilution was evaluated in duplicate on one test occasion. Vehicle-control and reference controls were used as blank and positive controls, respectively. Plates were incubated at 35-37° C. for 18 h. The test plates were visually examined and each well was visually scored for growth or complete inhibition of growth. The MIC value was recorded.

Assay [8] relates to Staphylococcus aureus ATCC 33591 (MRSA). Described as above. Conditions: Staphylococcus aureus ATCC 33591, MRSA; read-out: MIC. The procedure: as §6, §7
Assay [9] relates to Staphylococcus aureus BAA-1556 (MRSA). Described as above. As to conditions: Staphylococcus aureus BAA-1556, MRSA; read-out: MIC. On the procedure:
as §6, §7

Assay [10] has as its system Staphylococcus aureus VRS-2 (VRSA). Described as above. As to conditions: Staphylococcus aureus VRS-2, VRSA; read-out: MIC. The procedure:
as §6, §7

The mark [11] stands for this setting: compound 3 in combination with rifampicin.

Regarding `N=C(N)c1ccc(CC[C@H]2CCC[C@@H](CCc3ccc(C(=N)N)cc3)C2)cc1` [Compound 3, 4,4′-(2,2′-((1R,3S)-cyclohexane-1,3-diyl)bis(ethane-2,1-diyl))dibenzimidamide], the MIC in assay [1] (ATCC13047, substance alone) was determined as 100 µg/mL; in assay [2] (substance alone) it was 100 µg/mL; in [3] (substance alone), 100 µg/mL; in [4] (Salmonella enterica, substance alone, read-out: MIC), 50 µg/mL; in [5] it was 0.5 µg/mL (≈ 1.33 µM); in assay [6], 0.5 µg/mL (≈ 1.33 µM). The MIC in assay [7] came to 0.125 µg/mL (≈ 0.332 µM); in [8], 0.125 µg/mL (≈ 0.332 µM); in assay [9], 0.25 µg/mL (≈ 0.664 µM); in assay [10], 0.25 µg/mL (≈ 0.664 µM). Moreover, the “Combination Result” value in assay [1] (setting [11]), in assay [2] (setting [11]), in assay [3] (setting [11]) and in [4] (setting [11]) was “synergy (Synergy is defined as the FICI (Σ)≤0.5)” each time. Moreover, the “FICI (Average)” value in assay [1] (setting [11]) worked out at 0.19; in [2] (setting [11]) it was 0.19; in [3] (setting [11]), 0.19; in assay [4] (setting [11]), 0.32.
